Measured values as given in patent US8669378B2, “Process for synthesizing epicconone analogs” (Universite de Rouen, priority 2009, dated 2014).

Columns and labels:
Format in all cases: physicochemical
[1] = Absorbance of the adducts with butylamine in acetonitrile; conditions: Bioconjugated molecule (BuNH2) in CH3CN; for λ UV (nm), second maximum: longer-wavelength absorption maximum, used for excitation; for λ UV (nm), first maximum: shorter-wavelength absorption maximum
Method: (§1) Apparatus: • Acetonitrile: VWR HPLC quality • Micropipette: 5 μl, 10 μl, 200 μl, 1000 μl, • Eppendorf: Safe lock tube PCR • UV cuvette: Varian-Quartz 10 mm thick • Fluorescence cuvette: Hellma-Quartz 10 mm thick • Vortex: Bender & Hobein-Genie 2 • Centrifuge: Baky Bug • Absorbance spectrophotometer: Varian-Cary 50 scan • Fluorescence spectrophotometer: Varian-Cary Eclipse • Thermostated bath: Varian-Cary single cell peltier accessory Stock Solution:
(§2) Approximately exactly 1 to 2 mg of compound Ia-Io are weighed out in a 1.5 mL Eppendorf tube. The stock solutions are then prepared by adding exactly 1 mL of acetonitrile and the Eppendorf tubes are then stored protected from light.
30 μl of stock solution are placed in a 1.5 mL Eppendorf tube. At room temperature, 10 μl (or 30 μl in the case of Ik) of a 0.15 M solution of butylamine/acetonitrile are added and the medium is stirred by vortex and then centrifuged. After diluting to 1 mL by adding 960 μl of acetonitrile (or 940 μl in the case of Ik), the clear solution is transferred into a UV cuvette and then made up to 2 mL with acetonitrile. The analysis is then performed after producing a “blank” spectrum with a pure acetonitrile solution.

[2] = Fluorescence of the adducts with butylamine in acetonitrile; parameters: Δ Stokes: unit not given here; conditions: Bioconjugated molecule (BuNH2) in CH3CN; for Δ Stokes: emission minus excitation wavelength; for λ fluo (λ excitation) (nm): excitation at maximum-absorption wavelength; for Intensity normalized to 50 μM: fluorescence intensity
Method: as §1, §2
Two protocols were implemented for the fluorescence tests. • For compounds Ii-Ik: 125 μL of the preceding solution (absorbance solution) are diluted to 1.25 mL by adding 1125 μl of acetonitrile to a fluorescence cuvette. The analysis is then performed on the fluorescence spectrophotometer by excitation at the respective maximum-absorption wavelengths. • For compounds Ia-Ih and Il-Io: 1250 μl of the preceding solution (absorbance) are placed in a fluorescence cuvette. The analysis is then performed on the fluorescence spectrophotometer by excitation at the respective maximum-absorption wavelengths.

[3] = Photobleaching of stained standard proteins in gel under UV transilluminator; conditions: protein-stained gel, first-order exponential decay fit, deduced from FIG. 1
Method: The compounds were dissolved at 10 mg/mL in DMSO. The stock solutions obtained were diluted to 1 mg/mL in water and divided into 100 μL aliquots for storage. All the products and aliquots were stored at −80° C.
Standard proteins (SDS labeling kit-low molecular weight sold by GE, 17-0446-01) were diluted in an LDS buffer (250 μL Invitrogen 4×LDS buffer, 100 μL of 1 M DDT, 650 μL of water) to create serial dilutions ranging from 128 ng/STI band to 125 pg/STI band.
5 μL of each protein solution were loaded onto NuPAGE® Novex® 12% bis-tris gels (1.0 mm thick, 12 wells, Invitrogen NP0342BOX). The gels were subjected to a current of 150 V for approximately 65 minutes using MES buffer (50 mM MES, 50 mM tris, 1 mM EDTA, 0.1% SDS, pH 7.3) so that the buffer front arrives just up to the gel. After eluting the dye, the gels were fixed for 1 to 17 hours (100 mL of fixing solution with 15% EtOH (v/v) and 1% citric acid) in individual lanes. The fixing solution used was replaced with fresh solution one hour after staining. The gels were stained for 1 hour in 50 mL of sodium borate buffer at 100 mM (pH 10.9) containing either […] of LavaPurple gel dye (Fluorotechnics; LP-011005) or one of the test compounds (50 μL for a 1 mg/mL solution). The gels were treated with 100 mL of 15% ethanol and then washed with 100 mL of fixing solution for 30 minutes.
Imaging was performed using a Typhoon Trio imager (excitation: 532 nm, emission filter: 610BP30, 540 PMT, resolution: 100 μm) using a normal sensitivity. The recorded image corresponds to the scan at time zero. The gels were then placed in a UV transilluminator for 60, 146, 240, 330, 630 and 990 seconds (total exposure time), a Typhoon scanner image being recorded between each exposure. The volumes of the bands were analyzed using the Image-Quant TL software, and all the band volumes were normalized with phosphorylase B. The photobleaching was analyzed by graphically representing the band volumes as a function of the exposure time (GraphPad Prism v4 software) and by fitting the curve to a first-order exponential decay to determine a pseudofirst-order rate constant.
FIG. 1 represents the decrease of the normalized residual signal of compounds (Ii), (Ij), (Ik), (In) and (Io) according to the invention and of epicocconone.
From this FIGURE, the half-life times of the compounds may be deduced: […]

SMILES	λ UV (nm), second maximum [1]	λ UV (nm), first maximum [1]	Δ Stokes [2]	λ fluo (λ excitation) (nm) [2]	Intensity normalized to 50 μM [2]	Half-life time [3]
CC1CC2=CC3=C(C(=O)c4ccccc4)C(=O)OC3(C)C(=O)C2=CO1 (centres unmarked) [Ia, 3-benzoyl-6,9a-dimethyl-5,6-dihydro-9aH-furo[3,2-g]isochromene-2,9-dione]	472 nm	351 nm	113	585 nm	98	–
COc1ccc(C(=O)C2=C3C=C4CC(C)OC=C4C(=O)C3(C)OC2=O)cc1 (centres unmarked) [Ib, 3-(4-methoxybenzoyl)-6,9a-dimethyl-5,6-dihydro-9aH-furo[3,2-g]isochromene-2,9-dione]	452 nm	351 nm	134	586 nm	205	–
CC1CC2=CC3=C(C(=O)c4ccco4)C(=O)OC3(C)C(=O)C2=CO1 (centres unmarked) [Ic, 3-(furan-2-carbonyl)-6,9a-dimethyl-5,6-dihydro-9aH-furo[3,2-g]isochromene-2,9-dione]	465 nm	352 nm	128	593 nm	193	–
CC1CC2=CC3=C(C(=O)c4ccc5ccccc5c4)C(=O)OC3(C)C(=O)C2=CO1 (centres unmarked) [Id, 3-(2-naphthoyl)-6,9a-dimethyl-5,6-dihydro-9aH-furo[3,2-g]isochromene-2,9-dione]	464 nm	351 nm	106	570 nm	173	–
COCCOCCOc1ccc(C(=O)C2=C3C=C4CC(C)OC=C4C(=O)C3(C)OC2=O)cc1 (centres unmarked) [Ie, 3-(4-(2-(2-methoxyethoxy)ethoxy)benzoyl)-6,9a-dimethyl-5,6-dihydro-9aH-furo[3,2-g]isochromene-2,9-dione]	453 nm	349 nm	137	590 nm	120	–
COc1ccccc1C(=O)C1=C2C=C3CC(C)OC=C3C(=O)C2(C)OC1=O (centres unmarked) [If, 3-(2-methoxybenzoyl)-6,9a-dimethyl-5,6-dihydro-9aH-furo[3,2-g]isochromene-2,9-dione]	469 nm	351 nm	120	589 nm	147	–
CC1CC2=CC3=C(C(=O)c4ccccc4O)C(=O)OC3(C)C(=O)C2=CO1 (centres unmarked) [Ig, 3-(2-hydroxybenzoyl)-6,9a-dimethyl-5,6-dihydro-9aH-furo[3,2-g]isochromene-2,9-dione]	463 nm	350 nm	134	597 nm	32	–
COc1ccc(C(=O)C2=C3C=C4CC(C)(C)OC=C4C(=O)C3(C)OC2=O)cc1 (centres unmarked) [Ih, 3-(4-methoxybenzoyl)-6,6,9a-trimethyl-5,6-dihydro-9aH-furo[3,2-g]isochromene-2,9-dione]	460 nm	354 nm	130	590 nm	155	–
COc1ccc(/C(O)=C/C(=O)C2=C3C=C4CC(C)OC=C4C(=O)C3(C)OC2=O)cc1 (centres unmarked) [Ii, (Z)-3-(3-hydroxy-3-(4-methoxyphenyl)acryloyl)-6,9a-dimethyl-5,6-dihydro-9aH-furo[3,2-g]isochromene-2,9-dione]	497 nm	366 nm	99	596 nm	3020	18.3 min
COc1ccc(/C(O)=C/C(=O)C2=C3C=C4CC(C)(C)OC=C4C(=O)C3(C)OC2=O)cc1 (centres unmarked) [Ij, (Z)-3-(3-hydroxy-3-(4-methoxyphenyl)acryloyl)-6,6,9a-trimethyl-5,6-dihydro-9aH-furo[3,2-g]isochromene-2,9-dione]	505 nm	366 nm	98	603 nm	3988	6.6 min
CC1(C)CC2=CC3=C(C(=O)/C=C(\O)c4ccccc4)C(=O)OC3(C)C(=O)C2=CO1 (centres unmarked) [Ik, (Z)-3-(3-hydroxy-3-phenylacryloyl)-6,6,9a-trimethyl-5,6-dihydro-9aH-furo[3,2-g]isochromene-2,9-dione]	512 nm	365 nm	94	606 nm	4157	22.4 min
COc1ccc(C(=O)C(C)C(=O)C2=C3C=C4CC(C)(C)OC=C4C(=O)C3(C)OC2=O)cc1 (centres unmarked) [Il, 3-(3-(4-methoxyphenyl)-2-methyl-3-oxopropanoyl)-6,6,9a-trimethyl-5,6-dihydro-9aH-furo[3,2-g]isochromene-2,9-dione]	498 nm	350 nm	90	588 nm	264	–
CC(C(=O)C1=C2C=C3CC(C)(C)OC=C3C(=O)C2(C)OC1=O)C(=O)c1ccccc1 (centres unmarked) [Im, 6,6,9a-trimethyl-3-(2-methyl-3-oxo-3-phenylpropanoyl)-5,6-dihydro-9aH-furo[3,2-g]isochromene-2,9-dione]	489 nm	351 nm	102	591 nm	202	–
CC1(C)CC2=CC3=C(/C(O)=C/C(=O)c4ccc(Cl)nc4)C(=O)OC3(C)C(=O)C2=CO1 (centres unmarked) [In, 3-[3-(6-chloro-pyridin-3-yl)-1-hydroxy-3-oxopropenyl]-6,6,9a-trimethyl-5,6-dihydro-9aH-furo[3,2-g]isochromene-2,9-dione]	525 nm	363 nm	87	612 nm	2764	33.1 min
CC1(C)CC2=CC3=C(C(=O)/C=C(\O)c4ccc5ccccc5c4)C(=O)OC3(C)C(=O)C2=CO1 (centres unmarked) [Io, 3-(1-hydroxy-3-naphtalen-2-yl-3-oxopropenyl)-6,6,9a-trimethyl-5,6-dihydro-9aH-furo[3,2-g]isochromene-2,9-dione]	520 nm	364 nm	89	609 nm	4320	44.7 min
